Results on 2 substances are retold here after patent US10166271B2, “Methods for promoting hair growth” (THE REGENTS OF THE UNIVERSITY OF CALIFORNIA, priority 2006, dated 2019).

Assay type in all cases: in vivo
Assay [1] has as its system CRF-OE mice. Put plainly: Long-term hair growth after sc injection in alopecic female CRF-OE mice (Example 5). The following applies: two female CRF-OE mice; sc 5 μg/day x 5 days; four months after the final injection. As to the method:
Two female CRF-OE mice, which had fully developed alopecia, received a single daily subcutaneous injection of 5 μg astressin B (in 0.1 ml saline) in the back for five consecutive days. Four (4) months after the final injection, the growth of hair on the backs of both mice was scored 9 out of 10. Similarly, two out of four male CRF-OE mice received intraperitoneal injection of 5 μg astressin B for five consecutive days. Thus, the mice not only grew hair in a previously bald (or balding) region, but such hair was maintained for months without on-going treatment.

Assay [2] deals with CRF-OE mice. Put plainly: Hair growth and skin pigmentation after ip injection in adult alopecic CRF-OE mice (Example 2). On the set-up: key to Back Hair Growth Score (BK) / Ventral Abdomen Hair Growth Score (VAb): hair growth score 0-10: 0 = no change in hair, 10 = full hair growth; key to Skin pigmentation (Pg) score: pigment score 0-10: 0 = bright pink skin, 10 = fully black. The following applies: for Back Hair Growth Score (BK) / Skin pigmentation (Pg) score / Ventral Abdomen Hair Growth Score (VAb): adult male CRF-OE mice, individual mice and Ave. As to the method: Hair growth in CRF-OE mice was assessed using the hair growth scale developed by Vegesna et al. […], 2002) modified to account for phenotypic differences between CRF-OE mice. Scores were made visually as well as using photographs of each mouse at a weekly interval. The degree of alopecia varied between individual CRF-OE mice; thus, the percent difference between the amount of hair present in the test area (described below) before and 4 weeks after treatment was converted to a score of 0-10. A zero score corresponded to a no change in the amount of hair in the test area and a score of 10 corresponded to full hair growth in the entire test area. The scale for monitoring hair growth in CRF-OE mice is more particularly described in Table 2.
Pigmentation of the skin (also referred to as skin color) in the test region was also measured because, in C57BL/6 mice, the skin darkens at the onset of hair growth. A pigmentation score from 0-10 was given to each mouse with a score of 0 corresponding to bright pink skin color/pigment in the entire test region, a score of 1-5 corresponding to increasing intensity of a pale greyish color/pigment of skin in the test region, a score of 6-9 corresponding to increasing but non-confluent darker color/pigment of skin in the test region, and a score of 10 corresponding to black pigmentation of the entire test region. Pigmentation was measured one week after the fifth and final injection because changes (if any) in pigmentation are substantially complete by that time.
CRF-OE mice (approximately 4 months old) with fully developed alopecia on their backs were injected intraperitoneally (ip) with equal volumes (0.1 ml) of either saline or astressin B (5 μg/mouse/day) for 5 consecutive days. Skin pigment score and hair growth (on the back) score were determined as described in Example 1. In addition, because adult CRF-OE mice also lose ventral abdomen hair, a ventral abdomen (Vab) hair growth score was determined. The area considered for scoring ventral abdomen hair growth was delineated, in the front (anteriorly), by a horizontal line across the tip of the xifoid process (distal sternum), in the rear (posteriorly), by a horizontal line joining the back of the thighs along the anus, and, laterally, by a straight line along the lateral side of the ventral abdomen on left and right sides.

In assay [3] the test system is CRF-OE mice. The experiment in a line: Cyclic CRF antagonists, hair growth in adult alopecic CRF-OE mice (Example 10). The following applies: at least four weeks after the final administration. An excerpt: Although mice are particularly described, one skilled in the art will appreciate that other laboratory animals and human subjects can be used, and doses adjusted accordingly (for example based on the weight of the subject, or the area to which the peptide is to be applied). Similarly although particular modes of administration are described, one will appreciate that variations can be made (such as those disclosed herein and those known in the art).
Any method of administration can be used, including injection, transdermal/topical delivery, or combinations thereof.
In one example, therapeutic peptides are administered via injection. For example, mice can be injected subcutaneously or intraperitoneally with at least 0.05 μg, at least 0.5 μg, at least 5 μg, at least 50 μg, or at least 500 μg of one or more therapeutic peptides (for example 0.5-50 μg peptide, 0.5-10 μg peptide, or 5 μg peptide). The peptide can be administered in 0.1 ml sterile saline (or 5% mannitol) once per day for at least 5 consecutive days, such as at least 10 days, at least 30 days, or at least 60 days. […] As a negative control, CRF-OE mice receive saline alone (such as 10-100 μl) or 5 μg astressin 2B in 0.1 ml saline.
In another example, therapeutic peptides are administered topically or transdermally. […]

The mark [4] stands for this setting: ip 5 μg/mouse/day x 5 days, CRF-OE mice.
Where [5] appears, read: ip 5 μg/mouse/day x 5 days, Before (Week 0), listed as AB.
[6] abbreviates: ip 5 μg/mouse/day x 5 days, Before (Week 0), listed as AB, mean.
The mark [7] stands for this setting: ip 5 μg/mouse/day x 5 days, Week 1, listed as AB.
Where [8] appears, read: ip 5 μg/mouse/day x 5 days, Week 1, listed as AB, mean.
Setting [9] is: ip 5 μg/mouse/day x 5 days, Week 8, listed as AB.
[10] abbreviates: ip 5 μg/mouse/day x 5 days, Week 8, listed as AB, mean.

Values joined by “and” are separate entries in the source; they are usually repeats but may differ in a detail not shown here. Equal values may be shown once. Where only a bound is given, the exact number is not on record here.

As for “(cyclo 30-33)[DPhe12, Nle21,38, Cml27,40, Glu30, Lys33]Ac-h/rCRF9-41 [Astressin B]”, the “Growth of hair on the back, score out of 10” value in the assay on CRF-OE mice [1] came to 9. Further, the “Onset of dark skin pigment after the final injection” value with CRF-OE mice [2] (setting [4]) is given as at most 3 days. The “Time of darkest skin color / maximal pigment response after the final injection” value with CRF-OE mice [2] (setting [4]) lay in the range of 7 to 10 days. In addition, the “Re-grown hair maintained / retained after the final ip injection” value with CRF-OE mice [2] (ip 5 μg/mouse/day x 5 days, CRF-OE mice, listed as astressin B) is reported as at least 8 weeks; in the assay on CRF-OE mice [2] (ip 5 μg/mouse/day x 5 days, CRF-OE mice, listed as astressin-B) it was 8 weeks. The “Back Hair Growth Score (BK)” value in the assay with CRF-OE mice [2] (setting [5]) was 2 and 1 (3×); in the assay with CRF-OE mice [2] (setting [6]) it was 1.25; in the assay with CRF-OE mice [2] (setting [7]), 9.5 and 10 and 9 (2×); with CRF-OE mice [2] (setting [8]), 9.4; in the assay with CRF-OE mice [2] (ip 5 μg/mouse/day x 5 days, Week 4, listed as AB), 10 (3×) and 9.5; in the assay with CRF-OE mice [2] (ip 5 μg/mouse/day x 5 days, Week 4, listed as AB, mean), 9.9. Besides, the “Back Hair Growth Score (BK)” value in the assay with CRF-OE mice [2] (setting [9]) was 10 and 9.5 and 8.5 and 8; with CRF-OE mice [2] (setting [10]), 9. The “Skin pigmentation (Pg) score” value in the assay with CRF-OE mice [2] (setting [5]) is recorded as 0.0; in the assay on CRF-OE mice [2] (setting [6]), 0; with CRF-OE mice [2] (ip 5 μg/mouse/day x 5 days, Week 1), 10. The “Ventral Abdomen Hair Growth Score (VAb)” value in the assay on CRF-OE mice [2] (setting [5]) is 5 (3×) and 2.5; in the assay with CRF-OE mice [2] (setting [6]), 4.4; with CRF-OE mice [2] (setting [7]) it was 10 (2×) and 8 (2×); in the assay on CRF-OE mice [2] (setting [8]) it was 9; in the assay with CRF-OE mice [2] (ip 5 μg/mouse/day x 5 days, Week 4) it was 10; with CRF-OE mice [2] (ip 5 μg/mouse/day x 5 days, Week 4, mean) it was 10. Also, the “Ventral Abdomen Hair Growth Score (VAb)” value with CRF-OE mice [2] (setting [9]) was 10 (2×) and 8 (2×); in the assay on CRF-OE mice [2] (setting [10]), 9. Also, the Hair coverage in the assay on CRF-OE mice [2] (ip 5 μg/mouse/day x 5 days, at 2 weeks, four-month old male CRF-OE mice) was 95-100%. Moreover, the “Re-grown hair largely maintained after the last ip injection” value with CRF-OE mice [2] (ip 5 μg/mouse/day x 5 days, four-month old male CRF-OE mice) was “up to 16 weeks”. In addition, the “Hair growth score (fully grown hair)” value with CRF-OE mice [2] (ip, four and seven weeks after the final injection, all mice) was 9-10. Further, in the assay with CRF-OE mice [2] (ip, one week after the final injection, fraction of mice), the “Mice with dark skin” value is on record as 4/4.

As to “cyclo(31-34)[DPhe11, His12, CαMeLeu13,39, Nle17, Glu31, Lys34]Ac-Sau(8-40) [Astressin 2B, reference compound]”, in the assay on CRF-OE mice [3], the “Hair in the test area” value was “remain bald in the test area”.
